We go through one compound from PMC10396955, “2-Oxabicyclo[2.1.1]hexanes as saturated bioisosteres of the ortho-substituted phenyl ring” (Nature Chemistry, 2023).

One series relates to Fusarium oxysporum. The series is described as follows: Antifungal activity, agar well diffusion method. The series is classed as cell-based. An excerpt: (§1) The agar well diffusion method is widely used to evaluate the antimicrobial activity of different substances (S. Magaldi, S. Mata-Essayag, C. Hartung de Capriles, et al. Well diffusion for antifungal susceptibility testing, Int. J. Infect. Dis. 8, 2004 , 39–45; C. Valgas, S. M. De Souza, E. F. A. Smânia, et al. Screening methods to determine antibacterial activity of natural products. Braz. J. Microbiol. 38 , 2007 , 369–380). Similarly to the procedure used in a disk-diffusion method, the agar plate surface is inoculated by spreading a volume of the microbial inoculum over the entire agar surface. Then, a hole with a diameter of 6 to 8 mm is punched aseptically with a sterile cork borer or a tip, and a volume […] of the antimicrobial agent or extract solution at desired concentration is introduced into the well. Then, agar plates are incubated under suitable conditions depending upon the test microorganism. The antimicrobial agent diffuses in the agar medium and inhibits the growth of the microbial strain tested (M. Balouiri, M. Sadiki, S. K. Ibnsouda. Methods for in vitro evaluating […]
(§2) Agar well diffusion method is a qualitative method used to measure the ability of compounds to inhibit microbial growth. This test is a quick and easy way to measure and compare levels of inhibitory […]
(§3) Antifungal activity of the synthetic compounds using agar well diffusion The compunds were tested towards plant pathogens Fusarium oxysporum Schltdl. and F. verticillioides (Sacc.) Nirenberg isolated from crops. Antifungal activity of the synthetic compounds was evaluated with using of an agar well diffusion method based on a disk diffusion assay for testing filamentous fungi (CLSI M51-A) [CLSI. Method for Antifungal Disk Diffusion Susceptibility Testing of Nondermatophyte Filamentous Fungi; Approved Guideline.CLSI document M51-A. Wayne, PA:
(§4) Clinical and Laboratory Standards Institute; 2010. This method is standardized for Altenaria , Aspergillus, Bipolaris , Fusarium , order Mucorales etc.
(§5) Preparation of synthetic compounds for mycological assay
(§6) Solutions of fungicides and its analogs were diluted in dimethyl sulfoxide (DMSO) to produce the […]
(§7) Antifungal well diffusion method
(§8) The fungal strains were cultured on potato dextrose agar slants (PDA, Eur. Pharm.) and incubated at 25 °C for 5 days. Sterile distilled water was used to cover and resuspend the colonies. Suspension of […]
(§9) conidia was adjusted to inoculums 5×10^6 conidia/mL. The suspension was further diluted in warm PDA 1:10 to obtain final working inoculums 5×10^5 conidia/mL.
(§10) Polypropylene cylinders (d, 5 mm) were placed on the surface and wells punched in the medium were used as reservoir of the test substances in different concentrations. 40 µl of solutions containing 0.0039-1.0 mg/mL of a test compound was added into the wells.
(§11) Each compound was tested in triplicate at different concentrations. Growth control was a well with 40 µl of DMSO, which was used for test components dilution.
(§12) Plates incubated at 25 °C for 72 h. The test compounds at known concentration into contact with an inoculated medium then exerts a growth-inhibiting effect then a clear zone (the zone of inhibition) appears around the test product. Diameter of a clear zone around the well is measured at the end of the incubation period in millimeters. If the fungal strain is susceptible to the antifungal agent, then a zone of inhibition appears on the agar plate. If it is resistant to the test compound, then no zone is evident.
(§13) The size of the zone of inhibition is usually related to the level of antifungal activity present in the […]
(§14) The growth rate of Fusarium oxysporum and F. verticillioides for each well was determined visually and compared with the growth of control.
(§15) As shown in the table the antifungal activity of the 6 compounds, - Fluxapyroxad, compound 28, compound 29, Boscalid, compound 30, compound 31, - were tested against plant pathogenic fungal […]
(§16) toward Fusarium oxysporum (Table S5, Figure S16). Inhibition zones of all compounds characterized […]

The next series has as its system Fusarium verticillioides. As to the kind of experiment: Antifungal activity, agar well diffusion method. The series is classed as cell-based. To be noted: Fusarium verticillioides, 0 = absence of antifungal activity, read-out: Diameter of inhibition zone.
From the text: as §1, §2, §3, §4, §5, §6, §7, §8, §9, §10, §11, §12, §13, §14, §15, §16

In the case of `O=C(N[C@@H]1[C@H]2C[C@]1(c1ccc(Cl)cc1)CO2)c1cccnc1Cl` (relative stereo) [Compound 31], the melting point lay in the range of 147 to 148 °C. Further, the zone of inhibition at 3.9 µg/mL in the series on Fusarium oxysporum (Fusarium oxysporum, 0.0039 mg/mL, zones st (static growth), read-out: Diameter of inhibition zone) was determined as 8 ± 0.6 mm. The zone of inhibition at […] in the series on Fusarium oxysporum (Fusarium oxysporum, 0.0078 mg/mL, zones st (static growth), read-out: Diameter of inhibition zone) stood at 9 ± 0.6 mm. For the same compound, the zone of inhibition at 15.6 µg/mL in the series with Fusarium oxysporum (Fusarium oxysporum, 0.0156 mg/mL, zones st (static growth), read-out: Diameter of inhibition zone) came out at 14 ± 1 mm. The zone of inhibition at 31.25 µg/mL with Fusarium oxysporum (Fusarium oxysporum, 0.03125 mg/mL, zones st (static growth), read-out: Diameter of inhibition zone) was found to be 16 ± 1 mm. Further, the zone of inhibition at 62.5 µg/mL in the series on Fusarium oxysporum (Fusarium oxysporum, 0.0625 mg/mL, zones st (static growth), read-out: Diameter of inhibition zone) is 18 ± 0.6 mm. In addition, the zone of inhibition at 125 µg/mL in the series on Fusarium oxysporum (Fusarium oxysporum, 0.125 mg/mL, zones st (static growth), read-out: Diameter of inhibition zone) came out at 19 ± 1 mm. Moreover, the zone of inhibition at 250 µg/mL in the series on Fusarium oxysporum (Fusarium oxysporum, 0.25 mg/mL, zones st (static growth), read-out: Diameter of inhibition zone) stood at 18 ± 1 mm. In the series with Fusarium oxysporum (Fusarium oxysporum, 0.5 mg/mL, zones st (static growth), read-out: Diameter of inhibition zone), the zone of inhibition at 500 µg/mL came to 21 ± 1 mm. Moreover, in the series on Fusarium oxysporum (Fusarium oxysporum, 1 mg/mL, 40 µl per well, 25 °C, 72 h, zones st (static growth), read-out: Diameter of inhibition zone), the zone of inhibition at 1000 µg/mL was 25 ± 0.6 mm. In the series on Fusarium oxysporum (agar well diffusion, tested 0.0039-1.0 mg/mL), the lowest inhibition concentration turned out to be 0.0039 mg/mL. Besides, the zone of inhibition at 3.9 µg/mL in the series on Fusarium verticillioides (0.0039 mg/mL) came out at 0 mm. Further, the zone of inhibition at […] with Fusarium verticillioides (0.0078 mg/mL) is 0 mm. The zone of inhibition at 15.6 µg/mL with Fusarium verticillioides (0.0156 mg/mL) worked out at 0 mm. Besides, in the series with Fusarium verticillioides (0.03125 mg/mL), the zone of inhibition at 31.25 µg/mL was 0 mm. Also, in the series on Fusarium verticillioides (0.0625 mg/mL), the zone of inhibition at 62.5 µg/mL stood at 0 mm. The zone of inhibition at 125 µg/mL in the series on Fusarium verticillioides (0.125 mg/mL) came out at 10 ± 0.6 mm. Besides, the zone of inhibition at 250 µg/mL in the series with Fusarium verticillioides (0.25 mg/mL) amounted to 16 ± 1.2 mm. The zone of inhibition at 500 µg/mL in the series with Fusarium verticillioides (0.5 mg/mL) stood at 23 ± 1.5 mm. In addition, the zone of inhibition at 1000 µg/mL in the series on Fusarium verticillioides (1 mg/mL, 40 µl per well, 25 °C, 72 h) worked out at 29 ± 1.2 mm.
